Tested on: CCRF-CEM cancer cells - leukemia
Experiment: Fluorometric Microculture Cytotoxicity Assay (FMCA), CCRF-CEM
Type: cell-based
Details: Homo sapiens, 72 h incubation
From the text: The Fluorometric Microculture Cytotoxicity Assay, FMCA (Larsson, R., et al.; Anticancer Res, 1989, 9, 1111-1119), is a three day non-clonogenic microplate-based cell viability assay used for measurement of the cytotoxic and/or cytostatic effect of compounds in vitro (Lindhagen, E. et al.; Nat. Protoc., 2008, 3, 1364-1369). FMCA represents a valuable method to measure cytotoxicity in a number of cell types, both cell lines and primary cells from patients (Larsson, R., et al.; Int. J. Cancer, 1992, 50, 177-185; Fridborg, H., et al.; Eur. J. Cancer, 1999. 35, 424-432; Dhar, S., et al.; Br. J. Cancer, 1996, 74, 888-896).
FMCA is based on the principle that fluorescein diacetate (FDA) is converted to the fluorescent probe fluorescein by esterases in the plasma membranes of living cells. For experiments, 96 or 384-well microplates are prepared with compounds and stored at −70° C. until use. Cells are then seeded into the drug-prepared plates and placed in an incubator for 72 h. On the last day of incubation, the plates are washed and a buffer containing FDA is added and incubated with the cells for 45 minutes. Finally the fluorescence per well is measured in a fluorometer and a Survival Index % (SI) for each compound-treated well is calculated with the equation: Compound-treated cells minus blank divided by control cells minus blank. A high SI-value indicates a large percentage of living cells and vice versa.
In subsequent experiments, compounds were tested, along with a number of approved cancer drugs (dasatinib, pazopanib, sorafenib, and sunitinib) as described above. Initially, the acute lymphoblastic leukemia cell line CCRF-CEM was used throughout. In the assay plates, medium was added to six empty wells (blank wells) and wells were filled with PBS and cell suspension and served as control wells. SI-values were then calculated for each compound-treated well as described above. All experiments were conducted twice and a new batch of plates was prepared for each experiment.
For dose-response experiments, 384-well plates were prepared as follows:
Compounds of the invention as well comparative kinase inhibitors sorafenib sunitinib, dasatinib, pazopanib and a reference compound disclosed in WO 2009/071535 (compound #107) were diluted with PBS to a concentration ten-times higher than the desired starting concentration. Then, a Biomek 2000 liquid handling system was employed to serially dilute the compounds in a deep-well 384-well plate. From this plate, assay plates containing 5 μl compound per well were prepared with the Biomek 2000. Certain compounds precipitated when diluted with PBS, and these compounds were therefore prepared in a 96-well plate manually as described above using culture medium RPMI 1640 instead of PBS.
The compounds were also tested at five concentrations, with five times serial dilution on the following cell types: CCRF-CEM, hTERT-RPE1 (normal retinal epithelial cells), hRPTEpiC (normal renal cells), and peripheral blood mononuclear cells (PBMC). Each experiment was performed three times, except for PBMC and hRPTEpiC, which were performed twice. SI-values were calculated, graphs were plotted using GraphPadPrism 5.0 (GraphPad Software Inc. La Jolla, Calif.) and IC50-values for each cell type and compound were determined from the curves.

## Cc1cc2cc(Nc3nccc(NCCc4c[nH]c5ccccc45)n3)ccc2[nH]1 [Example 22, N^4-[2-(1H-indol-3-yl)ethyl]-N^2-(2-methyl-1H-indol-5-yl)pyrimidine-2,4-diamine]
  EC50: 3.4 µM

## c1ccc2c(CCNc3nccc(Nc4ccc5[nH]ccc5c4)n3)c[nH]c2c1 [Example 1, N^2-[2-(1H-indol-3-yl)ethyl]-N^4-(1H-indol-5-yl)pyrimidine-2,4-diamine]
  EC50: 4.1 µM

## COc1ccc2[nH]cc(CCNc3nccc(Nc4ccc5cc(C)[nH]c5c4)n3)c2c1 [Example 73, N^2-[2-(5-methoxy-1H-indol-3-yl)ethyl]-N^4-(2-methyl-1H-indol-6-yl)pyrimidine-2,4-diamine]
  EC50: < 0.1 µM

## COc1ccc2[nH]cc(CCNc3nccc(Nc4ccc5c(c4)nc(CO)n5C)n3)c2c1 [Example 60, (5-{2-[2-(5-methoxy-1H-indol-3-yl)ethylamino]pyrimidin-4-ylamino}-1-methyl-1H-benzo[d]imidazol-2-yl)methanol]
  EC50: 0.21 µM

## CCOc1ccc2[nH]cc(CCNc3nccc(Nc4ccc5cc(C)[nH]c5c4)n3)c2c1 [Example 74, N^2-[2-(5-ethoxy-1H-indol-3-yl)ethyl]-N^4-(2-methyl-1H-indol-6-yl)pyrimidine-2,4-diamine]
  EC50: < 0.1 µM

## Cc1cc2cc(Nc3ccnc(NCCc4c[nH]c5ccc(OCCN6CCOCC6)cc45)n3)ccc2[nH]1 [Example 6, N^4-(2-methyl-1H-indol-5-yl)-N^2-{2-[5-(2-morpholinoethoxy)-1H-indol-3-yl]ethyl}pyrimidine-2,4-diamine]
  EC50: 2.9 µM

## CNC(=O)c1cc(Oc2ccc(NC(=O)Nc3ccc(Cl)c(C(F)(F)F)c3)cc2)ccn1 [Ref. 1, sorafenib, reference compound]
  EC50: 8.3 µM

## COc1ccc2[nH]cc(CCNc3ccnc(Nc4ccc5[nH]c(C)cc5c4)n3)c2c1 [Example 23, N^4-[2-(5-methoxy-1H-indol-3-yl)ethyl]-N^2-(2-methyl-1H-indol-5-yl)pyrimidine-2,4-diamine]
  EC50: 0.059 µM

## Cc1ccc(Nc2nccc(N(C)c3ccc4c(C)n(C)nc4c3)n2)cc1S(N)(=O)=O [Ref. 4, pazopanib, reference compound]
  EC50: 25.9 µM

## CCOc1ccc2[nH]cc(CCNc3nccc(Nc4cccc5[nH]c(C)cc45)n3)c2c1 [Example 78, N^2-[2-(5-ethoxy-1H-indol-3-yl)ethyl]-N^4-(2-methyl-1H-indol-4-yl)pyrimidine-2,4-diamine]
  EC50: < 0.1 µM

## COc1ccc2[nH]c(C)c(CCNc3nc(C)cc(Nc4ccc5[nH]c(C)cc5c4)n3)c2c1 [Example 56, N^2-[2-(5-methoxy-2-methyl-1H-indol-3-yl)ethyl]-6-methyl-N^4-(2-methyl-1H-indol-5-yl)pyrimidine-2,4-diamine]
  EC50: 0.13 µM

## COc1ccc2[nH]cc(CCNc3ncc(C)c(Nc4ccc5[nH]c(C)cc5c4)n3)c2c1 [Example 29, N^2-[2-(5-methoxy-1H-indol-3-yl)ethyl]-5-methyl-N^4-(2-methyl-1H-indol-5-yl)pyrimidine-2,4-diamine]
  EC50: 0.057 µM

## c1ccc2c(CCNc3ccnc(Nc4cccc5[nH]ccc45)n3)c[nH]c2c1 [Example 25, N^4-[2-(1H-indol-3-yl)ethyl]-N^2-(1H-indol-4-yl)pyrimidine-2,4-diamine]
  EC50: 1 to 10 µM

## COc1ccc2[nH]cc(CCNc3nc(Nc4cccc5c4ccn5C)cc(N4CCN(C)CC4)n3)c2c1 [Example 89, N^2-[2-(5-methoxy-1H-indol-3-yl)ethyl]-N^4-(1-methylindol-4-yl)-6-(4-methylpiperazin-1-yl)pyrimidine-2,4-diamine]
  EC50: < 1 µM

## CCOc1ccc2[nH]cc(CCNc3nccc(Nc4ccc5ccn(C)c5c4)n3)c2c1 [Example 76, N^2-[2-(5-ethoxy-1H-indol-3-yl)ethyl]-N^4-(1-methylindol-6-yl)pyrimidine-2,4-diamine]
  EC50: < 1 µM

## Cc1cc2cc(Nc3ccnc(NCCc4c[nH]c5ccc(F)cc45)n3)ccc2[nH]1 [Example 10, N^2-[2-(5-fluoro-1H-indol-3-yl)ethyl]-N^4-(2-methyl-1H-indol-5-yl)pyrimidine-2,4-diamine]
  EC50: 0.28 µM

## COc1ccc2[nH]cc(CCNc3nccc(Nc4ccc5[nH]cnc5c4)n3)c2c1 [Example 18, N^4-(1H-benzo[d]imidazol-5-yl)-N^2-[2-(5-methoxy-1H-indol-3-yl)ethyl]pyrimidine-2,4-diamine]
  EC50: 0.42 µM

## Cc1cc2cc(Nc3ccnc(NCCc4c[nH]c5ccc(OC(F)(F)F)cc45)n3)ccc2[nH]1 [Example 7, N^4-(2-methyl-1H-indol-5-yl)-N^2-{2-[5-(trifluoromethoxy)-1H-indol-3-yl]ethyl}pyrimidine-2,4-diamine]
  EC50: 0.14 µM

## CCOc1ccc2[nH]cc(CCNc3ncc(N)c(Nc4ccc5[nH]c(C)cc5c4)n3)c2c1 [Example 90, N^2-[2-(5-ethoxy-1H-indol-3-yl)ethyl]-N^4-(2-methyl-1H-indol-5-yl)pyrimidine-2,4,5-triamine]
  EC50: < 0.1 µM

## COc1ccc2[nH]cc(CCN(C)c3nccc(Nc4ccc5[nH]c(CO)cc5c4)n3)c2c1 [Example 59, [5-(2-{[2-(5-methoxy-1H-indol-3-yl)ethyl][methyl]amino}pyrimidin-4-ylamino)-1H-indol-2-yl]methanol]
  EC50: 1 to 10 µM

## COc1ccc2[nH]cc(CCNc3nccc(Nc4ccc5ccn(C)c5c4)n3)c2c1 [Example 75, N^2-[2-(5-methoxy-1H-indol-3-yl)ethyl]-N^4-(1-methylindol-6-yl)pyrimidine-2,4-diamine]
  EC50: < 1 µM

## COc1cccc2c(CCNc3nccc(Nc4ccc5[nH]c(C)cc5c4)n3)c[nH]c12 [Example 12, N^2-[2-(7-methoxy-1H-indol-3-yl)ethyl]-N^4-(2-methyl-1H-indol-5-yl)pyrimidine-2,4-diamine]
  EC50: 0.13 µM

## COc1ccc2[nH]cc(CCNc3nc(C)cc(Nc4ccc5[nH]c(C)nc5c4)n3)c2c1 [Example 57, N^2-[2-(5-methoxy-1H-indol-3-yl)ethyl]-6-methyl-N^4-(2-methyl-1H-benzo[d]imidazol-5-yl)pyrimidine-2,4-diamine]
  EC50: 0.23 µM

## Cc1nc(Nc2ncc(C(=O)Nc3c(C)cccc3Cl)s2)cc(N2CCN(CCO)CC2)n1 [Ref. 3, dasatinib, reference compound]
  EC50: 9.7 µM

## COc1ccc2[nH]cc(CCNc3nccc(Nc4cccc5[nH]ccc45)n3)c2c1 [Example 21, N^4-(1H-indol-4-yl)-N^2-[2-(5-methoxy-1H-indol-3-yl)ethyl]pyrimidine-2,4-diamine]
  EC50: 0.059 µM

## Cc1cc(Nc2ccc3[nH]c(C)cc3c2)nc(NCCc2c[nH]c3ccccc23)n1 [Example 26, N^2-[2-(1H-indol-3-yl)ethyl]-6-methyl-N^4-(2-methyl-1H-indol-5-yl)pyrimidine-2,4-diamine]
  EC50: 0.65 µM

## COc1cc2[nH]cc(CCNc3nccc(Nc4ccc5[nH]c(C)cc5c4)n3)c2cc1OC [Example 50, N^2-[2-(5,6-dimethoxy-1H-indol-3-yl)ethyl]-N^4-(2-methyl-1H-indol-5-yl)pyrimidine-2,4-diamine]
  EC50: 0.18 µM

## COc1ccc2[nH]cc(CCNc3nccc(Nc4ccc5c(c4)nc(C)n5C)n3)c2c1 [Example 53, N^4-(1,2-dimethyl-1H-benzo[d]imidazol-5-yl)-N^2-[2-(5-methoxy-1H-indol-3-yl)ethyl]pyrimidine-2,4-diamine]
  EC50: 0.033 µM

## CCOc1ccc2[nH]cc(CCNc3nc(Nc4ccc5[nH]c(C)cc5c4)cc(C(N)=O)n3)c2c1 [Example 85, 2-[2-(5-ethoxy-1H-indol-3-yl)ethylamino]-6-[(2-methyl-1H-indol-5-yl)amino]pyrimidine-4-carboxamide]
  EC50: < 0.1 µM

## Cc1cc2cc(Nc3ccnc(NCCc4c[nH]c5ccccc45)n3)ccc2[nH]1 [Example 3, N^2-[2-(1H-indol-3-yl)ethyl]-N^4-(2-methyl-1H-indol-5-yl)pyrimidine-2,4-diamine]
  EC50: 0.29 µM

— US9006241B2, “Pyrimidine derivatives” (Noviga Research AB, priority 2011, dated 2015)
